# According to the supplement of paper PMC10307832:
# Compound: CC(C)C[C@H](NC(=O)[C@H](CCc1ccccc1)NC(=O)CN1CCOCC1)C(=O)N[C@@H](Cc1ccccc1)C(=O)N[C@@H](CC(C)C)C(=O)[C@@]1(C)CO1 [Carfilzomib]
# Test: relative viability (nuclei count vs DMSO), 5 days (fraction); higher = more cells survive
# Settings: 0.001 µM
# How it was run: (§1)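 Viability was read as treated-well nuclei divided by vehicle-well nuclei, using the median across plates. Lung cancer cell lines in 1536-well plates were kept overnight at 37 °C, pinned with five √10-spaced library-drug doses, and after 5 days were Hoechst-stained, imaged at 4× and counted in MetaXpress. Plates passed only with control CV below 25% and at least one doubling.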
row,Cell Line,relative viability
1,NCI-H727,0.886
2,NCI-H838,0.982
3,NCI-H1355,0.876
4,NCI-H1395,0.764
5,NCI-H1437,0.952
6,NCI-H1648,0.845
7,NCI-H1650,0.986
8,NCI-H1651,0.964
9,NCI-H1666,1.02
10,NCI-H1734,0.972
11,NCI-H1755,1.01
12,NCI-H1792,0.827
13,NCI-H1915,0.954
14,NCI-H1944,0.907
15,NCI-H1975,0.946
16,NCI-H1993,0.943
17,NCI-H2009,1.07
18,NCI-H2023,1.01

row,Cell Line,relative viability
1,NCI-H2085,1.02
2,NCI-H2087,0.989
3,NCI-H2126,0.994
4,NCI-H2170,0.931
5,NCI-H2228,0.975
6,NCI-H2342,0.975
7,NCI-H2347,0.971
8,NCI-H2405,0.704
9,NCI-H3122,1.03
10,PC-3 [JPC-3],1
11,PC-14,1.03
12,RERF-LC-KJ,0.923
13,SK-LU-1,0.968
14,SK-MES-1,0.987
15,SW 900,0.747
16,SW 1573,0.957
17,UMC-11,0.947

# Same assay, conditions: 0.003162 µM
row,Cell Line,relative viability
1,NCI-H727,0.998
2,NCI-H838,1.05
3,NCI-H1355,1.04
4,NCI-H1395,1.08
5,NCI-H1437,1.07
6,NCI-H1648,1.11
7,NCI-H1650,0.975
8,NCI-H1651,1.01
9,NCI-H1666,1.07
10,NCI-H1734,1.04
11,NCI-H1755,1.02
12,NCI-H1792,0.962
13,NCI-H1915,1.08
14,NCI-H1944,1.03
15,NCI-H1975,1.05
16,NCI-H1993,0.999
17,NCI-H2009,1.05
18,NCI-H2023,0.965

row,Cell Line,relative viability
1,NCI-H2085,1.03
2,NCI-H2087,1.06
3,NCI-H2126,1.07
4,NCI-H2170,0.99
5,NCI-H2228,1.15
6,NCI-H2342,0.957
7,NCI-H2347,1.08
8,NCI-H2405,1.15
9,NCI-H3122,1.05
10,PC-3 [JPC-3],1.07
11,PC-14,1.13
12,RERF-LC-KJ,1.03
13,SK-LU-1,1.22
14,SK-MES-1,1.05
15,SW 900,0.883
16,SW 1573,1.18
17,UMC-11,1.03

# Same assay, conditions: 0.01 µM
row,Cell Line,relative viability
1,NCI-H727,1.12
2,NCI-H838,0.951
3,NCI-H1355,1.01
4,NCI-H1395,0.669
5,NCI-H1437,1.04
6,NCI-H1648,1.14
7,NCI-H1650,0.341
8,NCI-H1651,0.879
9,NCI-H1666,1.06
10,NCI-H1734,0.904
11,NCI-H1755,1
12,NCI-H1792,0.957
13,NCI-H1915,0.871
14,NCI-H1944,0.927
15,NCI-H1975,0.808
16,NCI-H1993,1.01
17,NCI-H2009,1.02
18,NCI-H2023,0.944

row,Cell Line,relative viability
1,NCI-H2085,0.962
2,NCI-H2087,0.586
3,NCI-H2126,1.03
4,NCI-H2170,1.07
5,NCI-H2228,0.905
6,NCI-H2342,1.06
7,NCI-H2347,1.03
8,NCI-H2405,1.1
9,NCI-H3122,1.03
10,PC-3 [JPC-3],1.09
11,PC-14,1.06
12,RERF-LC-KJ,1.05
13,SK-LU-1,1
14,SK-MES-1,1.06
15,SW 900,0.288
16,SW 1573,0.77
17,UMC-11,0.987

# Same assay, conditions: 0.03162 µM
row,Cell Line,relative viability
1,NCI-H727,0.698
2,NCI-H838,0.875
3,NCI-H1355,0.946
4,NCI-H1395,0.437
5,NCI-H1437,0.884
6,NCI-H1648,0.725
7,NCI-H1650,0.141
8,NCI-H1651,0.327
9,NCI-H1666,0.981
10,NCI-H1734,0.354
11,NCI-H1755,1.01
12,NCI-H1792,0.658
13,NCI-H1915,1
14,NCI-H1944,1
15,NCI-H1975,0.146
16,NCI-H1993,0.818
17,NCI-H2009,0.44
18,NCI-H2023,0.436

row,Cell Line,relative viability
1,NCI-H2085,0.547
2,NCI-H2087,0.0747
3,NCI-H2126,0.93
4,NCI-H2170,0.969
5,NCI-H2228,0.157
6,NCI-H2342,0.968
7,NCI-H2347,0.511
8,NCI-H2405,0.8
9,NCI-H3122,0.978
10,PC-3 [JPC-3],0.896
11,PC-14,0.29
12,RERF-LC-KJ,0.683
13,SK-LU-1,0.249
14,SK-MES-1,0.782
15,SW 900,0.161
16,SW 1573,0.173
17,UMC-11,0.854

# Same assay, conditions: 0.1 µM
row,Cell Line,relative viability
1,NCI-H727,0.423
2,NCI-H838,0.151
3,NCI-H1355,0.18
4,NCI-H1395,0.34
5,NCI-H1437,0.358
6,NCI-H1648,0.416
7,NCI-H1650,0.186
8,NCI-H1651,0.12
9,NCI-H1666,0.437
10,NCI-H1734,0.124
11,NCI-H1755,0.788
12,NCI-H1792,0.388
13,NCI-H1915,0.184
14,NCI-H1944,0.343
15,NCI-H1975,0.137
16,NCI-H1993,0.426
17,NCI-H2009,0.0846
18,NCI-H2023,0.0808

row,Cell Line,relative viability
1,NCI-H2085,0.323
2,NCI-H2087,0.0676
3,NCI-H2126,0.568
4,NCI-H2170,0.443
5,NCI-H2228,0.101
6,NCI-H2342,0.825
7,NCI-H2347,0.393
8,NCI-H2405,0.277
9,NCI-H3122,0.455
10,PC-3 [JPC-3],0.39
11,PC-14,0.0816
12,RERF-LC-KJ,0.259
13,SK-LU-1,0.187
14,SK-MES-1,0.186
15,SW 900,0.192
16,SW 1573,0.0655
17,UMC-11,0.578

# Compound: C[C@@H](Oc1cc(-c2cnn(C3CCNCC3)c2)cnc1N)c1c(Cl)ccc(F)c1Cl [Crizotinib]
# Test: as above
# Settings: 0.01 µM
# How it was run: as §1
row,Cell Line,relative viability
1,NCI-H727,0.693
2,NCI-H838,0.86
3,NCI-H1355,0.983
4,NCI-H1395,0.819
5,NCI-H1437,0.951
6,NCI-H1648,0.742
7,NCI-H1650,0.842
8,NCI-H1651,0.954
9,NCI-H1666,0.952
10,NCI-H1734,0.913
11,NCI-H1755,0.943
12,NCI-H1792,0.886
13,NCI-H1944,0.879
14,NCI-H1975,0.884
15,NCI-H1993,0.859
16,NCI-H2009,0.953
17,NCI-H2023,0.85

row,Cell Line,relative viability
1,NCI-H2085,0.936
2,NCI-H2087,0.871
3,NCI-H2126,0.934
4,NCI-H2228,1.16
5,NCI-H2342,0.891
6,NCI-H2347,0.965
7,NCI-H2405,1.01
8,NCI-H3122,0.944
9,PC-3 [JPC-3],0.978
10,PC-14,0.92
11,RERF-LC-KJ,0.944
12,SK-LU-1,1.06
13,SK-MES-1,0.951
14,SW 900,0.811
15,SW 1573,0.941
16,UMC-11,0.898

# Same assay, conditions: 0.03162 µM
row,Cell Line,relative viability
1,NCI-H727,1.03
2,NCI-H1355,1.01
3,NCI-H1395,0.943
4,NCI-H1437,1.03
5,NCI-H1648,1.33
6,NCI-H1650,0.993
7,NCI-H1651,0.994
8,NCI-H1666,1.02
9,NCI-H1755,0.987
10,NCI-H1792,1.01
11,NCI-H1915,0.99
12,NCI-H1944,0.992
13,NCI-H1975,0.992
14,NCI-H1993,0.978
15,NCI-H2009,1
16,NCI-H2023,0.982
17,NCI-H2085,1.03

row,Cell Line,relative viability
1,NCI-H2087,0.982
2,NCI-H2126,1.02
3,NCI-H2170,0.985
4,NCI-H2228,1.04
5,NCI-H2342,0.999
6,NCI-H2347,0.974
7,NCI-H2405,0.977
8,NCI-H3122,0.988
9,PC-3 [JPC-3],1.04
10,PC-14,1.01
11,RERF-LC-KJ,1.06
12,SK-LU-1,1.07
13,SK-MES-1,0.999
14,SW 900,0.97
15,SW 1573,0.999
16,UMC-11,0.972

# Same assay, conditions: 0.1 µM
row,Cell Line,relative viability
1,NCI-H727,1
2,NCI-H838,0.972
3,NCI-H1355,1.05
4,NCI-H1395,1.05
5,NCI-H1437,0.996
6,NCI-H1648,0.651
7,NCI-H1650,0.969
8,NCI-H1651,0.938
9,NCI-H1666,0.985
10,NCI-H1734,0.886
11,NCI-H1792,1.09
12,NCI-H1915,1.02
13,NCI-H1944,0.907
14,NCI-H1975,0.967
15,NCI-H1993,0.807
16,NCI-H2009,1.05
17,NCI-H2023,0.974
18,NCI-H2085,0.977
19,NCI-H2087,1.22
20,NCI-H2126,0.959
21,NCI-H2170,0.977
22,NCI-H2228,1
23,NCI-H2347,1.07
24,NCI-H2405,0.909
25,NCI-H3122,1.02
26,PC-3 [JPC-3],1.15
27,PC-14,1.02
28,RERF-LC-KJ,1.02
